Results published in patent US12173309B2, “Compounds for increasing genome editing efficiency” (Max-Planck-Gesellschaft zur Förderung der Wissenschaften …, priority 2017, dated 2024).

System: 409-B2 iCRISPR-Cas9 iPSCs
Assay: PGE efficiency with iCRISPR Cas9 and ssODN donors
Format: cell-based, human
Description: FIG. 1: Genome editing and analysis flowchart. iCRISPR 409-B2 iPSCs are treated with 2 μg/ml doxycycline at least for 2 days to induce Cas9 or Cas9D10A expression. Reverse transfection with RNAiMAX, gRNA (7.5 nM each), ssODN (10 nM) and the small molecules to be evaluated is carried out in a 96 well plate for 1 day. The amount of cells used gives ˜80% confluency. Cells are then expanded for 3 days with regular media change. After harvest follows DNA extraction, PCR amplification of targeted loci, Illumina sequencing and CRISPResso (Pinello et al. 2016) sequence analysis for amount of indels and precise genome editing.
Cells were incubated with media containing 2 μg/ml doxycycline (Clontech, 631311) 2 days prior to lipofection. Lipofection (reverse transfection) was done using the alt-CRISPR manufacturer's protocol (IDT) with a final concentration of 7.5 nM of each gRNA and 10 nM of the respective ssODN. In brief, 0.75 μl RNAiMAX (Invitrogen, 13778075) and the respective oligonucleotides were separately diluted in 25 μl OPTI-MEM (Gibco, 1985-062) each and incubated at room temperature for 5 min. Both dilutions were mixed to yield 50 μl of OPTI-MEM including RNAiMAX, gRNAs and ssODNs. The lipofection mix was incubated for 20-30 min at room temperature. During incubation cells were dissociated using EDTA for 5 min and counted using the Countess Automated Cell Counter (Invitrogen). The lipofection mix, 100 μl containing 25.000 dissociated cells in mTeSR1 supplemented with Y-27632, 2 μg/ml doxycycline and the respective small molecule(s) to be tested were throughoutly mixed and put in one well of a 96 well covered with Matrigel Matrix (Corning, 35248). Media was exchanged to regular mTeSR1 media after 24 hours.
Three days after lipofection cells were dissociated using Accutase (SIGMA, A6964), pelleted, and resuspended in 15 μl QuickExtract (Epicentre, QE0905T). Incubation at 65° C. for 10 min, 68° C. for 5 min and finally 98° C. for 5 min was performed to yield ssDNA as a PCR template. Primers for each targeted loci of CALD1, KATNA1 and SLITRK1 containing adapters for Illumina sequencing were ordered from IDT (Coralville, USA). PCR was done in a T100 Thermal Cycler (Bio-Rad) using the KAPA2G Robust PCR Kit (Peqlab, 07-KK5532-03) with supplied buffer B and 3 μl of cell extract in a total volume of 25 μl. The thermal cycling profile of the PCR was: 95° C. 3 min; 34×(95° 15 sec, 65° C. 15 sec, 72° C. 15 sec); 72° C. 60 sec. P5 and P7 Illumina adapters with sample specific indices were added in a second PCR reaction (Kircher et al. 2012) using Phusion HF MasterMix (Thermo Scientific, F-531L) and 0.3 μl of the first PCR product. The thermal cycling profile of the PCR was: 98° C. 30 sec; 25× (98° 10 sec, 58° C. 10 sec, 72° C. 20 sec); 72° C. 5 min. Amplifications were verified by size separating agarose gel electrophoresis using EX gels (Invitrogen, G4010-11). The indexed amplicons were purified using Solid Phase Reversible Immobilization (SPRI) beads (Meyer, Kircher 2010). Double-indexed libraries were sequenced on a MiSeq (Illumina) giving paired-end sequences of 2×150 bp. After base calling using Bustard (Illumina) adapters were trimmed using leeHom (Renaud et al. 2014).
CRISPresso (Pinello et al. 2016) was used to analyse sequencing data from CRISPR genome editing experiments for percentage of wildtype, targeted nucleotide substitutions (TNS), indels and mix of TNS and indels. Parameters used for analysis were ‘-w 20’, ‘--min_identity_score 70’ and ‘--ignore_substitutions’ (analysis was restricted to amplicons with a minimum of 70% similarity to the wildtype sequence and to a window of 20 bp from each gRNA; substitutions were ignored, as sequencing errors would be falsely characterized as NHEJ-events). Sequencing data from colonies after single cell seeding (FIGS. 3B and C) was further analyzed by evaluating the actual read sequences using SAMtools. Clonal colonies were differentiated from mixed colonies using sequence read proportions. […]

[1] = CALD1, 20 μM NU7026, 5 μM NSC 15520
[2] = KATNA1, 20 μM NU7026, 5 μM NSC 15520
[3] = SLITRK1, 20 μM NU7026, 5 μM NSC 15520

O=c1cc(N2CCOCC2)oc2c1ccc1ccccc12 [NU7026]
PGE increase (mean change vs control) [1]: 1.5 fold
PGE increase (mean change vs control) [2]: 1.6 fold
PGE increase (mean change vs control) [3]: 1.2 fold

NS(=O)(=O)OC[C@@H]1C[C@@H](n2ccc3c(N[C@H]4CCc5ccccc54)ncnc32)C[C@@H]1O [MLN4924, Pevonedistat]
effect on PGE frequency over CALD1, KATNA1 and SLITRK1 compared to controls (0.01 μM TSA, 0.5 μM MLN4924, 1 μM NSC 19630, 20 μM AICAR, 1 μM RS-1, 1 μM Resveratrol, 1 μM SCR7, 5 μM L755507, 5 μM STL127685, 20 μM B02): slight diminishing effect

CC(C)C1=CC23CCC4C(C)(C(=O)O)CCCC4(C)C2CC1C(C(=O)O)C3C(=O)O (stereo not shown) [NSC 15520, Fumaropimaric acid]
PGE increase (mean change vs control) [1]: 1.3 fold
PGE increase (mean change vs control) [2]: no effect
PGE increase (mean change vs control) [3]: no effect
